Where two headings read alike, the source gives them in different places.
How the values were obtained:
[1] = test system: Polio virus loop B RNA; type: binding
[2] = test system: Ribosomal A-site RNA; assay: NMR line broadening of ligand signals; type: binding
[3] = target: A-site RNA; assay: STD NMR competition experiment with paromomycin; type: binding; settings: calculated from IC50 of the STD competition with paromomycin by Cheng and Prusoff correction; read-out: KD for the interaction with A-site RNA
[4] = test system: CVB3 loop D RNA; assay: NMR line broadening of ligand signals; type: binding, coxsackievirus B3
[5] = test system: Polio virus loop B RNA; type: binding; remark: listed apart in the source
[6] = test system: HIV-1 TAR RNA; assay: TOCSY/NOESY NMR, structure of the acetylpromazine-TAR complex; type: binding
Protocol: Five different samples of the 31-nucleotide TAR were prepared: unlabeled, uniformly ^13C,^15N-labeled, type-specifically ^13C,^15N-labeled at G, A or C residues, respectively. All samples were prepared by in vitro transcription using T7 RNA polymerase and a synthetic DNA template and purified as described in Du, et al., Biochemistry 35, 4187 (1996). Acetylpromazine was purchased from Research Diagnostics Inc. Final sample conditions were 1-2 mM RNA in 10 mM sodium phosphate buffer (pH 6.5), 20 mM sodium chloride. Acetylpromazine was added in about two-fold excess over RNA.
The solution structure of the acetylpromazine-TAR complex was determined using a protocol very similar to that previously described by Schmitz, U., et al, (1999) Structure of the phylogenetically most conserved domain of SRP RNA, RNA 5, 1419-1429.
All NMR experiments were performed on Varian Inova 600 MHz spectrometers. Spectra were processed with NMRpipe and analyzed with SPARKY. Homonuclear 2D NOESY spectra in H2O were collected at 10° C. using the SSNOESY pulse sequence.
Due to the large number of intermolecular NOEs, 51, between acetylpromazine and TAR, binding of acetylpromazine to the 5′ bulge is very well defined.
The […] of acetylpromazine inserts between base pairs G26-C39 and A22-U40, preventing continuous stacking of the lower and upper stems as observed in structures induced by argininamide or Tat-peptide. However, another set of base-stacking interactions is created. U23 continues stacking on A22 in the fashion of an A-helix. This is evident by the NOEs from U23 H6 to A22 H2′ and H3′, and from U23 H1′ to A22 H2. Benzene ring II of acetylpromazine is stacked on U40. Stacking of U23 on A22 and benzene ring II on U40 arranges the U23 base and benzene ring II such that they look like an extra base pair continuing helical stacking on the A22-U40 base pair. This “pseudo base-pair” may contribute to the creation of a deeper minor groove (compared to the standard A-helix) to accommodate the aliphatic moiety of acetylpromazine. […]

[7] = test system: DLS SL1 CA-loop RNA (dimer linkage site stem-loop 1); assay: TOCSY/NOESY NMR chemical shift mapping; type: binding, HIV-1
[8] = test system: HIV-1 TAR RNA; assay: Saturation transfer difference (STD) NMR binding experiment
[9] = test system: DLS SL1 CA-loop RNA (dimer linkage site stem-loop 1); assay: NMR line broadening of ligand signals; type: binding, HIV-1
[10] = test system: Ribosomal A-site RNA; assay: Saturation transfer difference (STD) NMR binding experiment; settings: for STD signals @ 0.4-0.6 mM drug: Ribosomal A-site RNA
[11] = test system: RNA targets (ribosomal A-site, polio virus, DLS SL1, CVB3); type: binding; settings: specific tertiary RNA motifs, loops and bulges
[12] = test system: HIV-1 TAR RNA; assay: NMR line broadening of ligand signals; type: binding
[13] = test system: CVB3 loop D RNA; assay: Saturation transfer difference (STD) NMR binding experiment; design: species or system coxsackievirus B3
[14] = test system: Tat-TAR interaction (TAR with hybrid CycT1-Tat protein); assay: Electrophoretic mobility shift assay (EMSA, gel shift); type: binding, HIV-1; settings: for Gel Shift Assay: HIV-1 TAR; for prevention of the binding between Tat and TAR (EMSA): concentrations between 0.1 and 1 μM, hybrid CycT1-Tat protein and TAR each at 0.1 μM; for binding to the TAR region: in vitro
Description: RNA Binding Assays In vitro (Electrophoretic Mobility Shift Assay; EMSA)
EMSA is an effective method for determining whether TAR forms a complex with Tat and human cyclin T1. n the presence of TAR, containing the 5′ bulge and central loop, and these proteins, a lower mobility complex was observed on polyacrylamide gels. The lack of higher order complex formation signifies that a compound can block this RNA-protein interaction. […] These phenothiazines are used clinically as antipsychotic, sedative and antiemetic agents.

[15] = test system: Polio virus loop B RNA; type: binding; settings: first part of cell TOCSY/NOESY
[16] = test system: Ribosomal A-site RNA; assay: TOCSY/NOESY NMR chemical shift mapping; type: binding
[17] = test system: DLS SL1 CA-loop RNA (dimer linkage site stem-loop 1); assay: Saturation transfer difference (STD) NMR binding experiment; design: species or system HIV-1
[18] = target: A-site RNA; settings: value stated for the competitor; read-out: KD of the high affinity drug (competitor) for A-site RNA; cited from earlier work
[19] = test system: HeLa cells; settings: human, 3 days
[20] = test system: Tat transactivation via TAR; assay: Chloramphenicol acetyl transferase (CAT) assay in HeLa cells, HIV-1 LTR and Tat; settings: concentrations between 5 and 20 μM, dose-dependent

Row | Structure (SMILES) | Line broadening [2] | STD signals @ 0.4-0.6 mM drug [8] | STD signals @ 0.4-0.6 mM drug [10] | Line broadening [12] | Gel Shift Assay [14] | prevention of the binding between Tat and TAR (EMSA) [14] | binding to the TAR region [14] | also measured
1 | CC(=O)c1ccc2c(c1)N(CCCN(C)C)c1ccccc1S2 [(1), 10-[3-(dimethylamino)-propyl)phenothiazin-2-yl methyl ketone] | yes | yes | yes | yes | positive | prevent completely | bind | STD signals @ 0.4-0.6 mM drug [1]: yes; Kd [3]: ~10 µM; Line broadening [4]: yes; Line broadening [5]: yes; binding site on TAR in solution (NMR-derived structural model) ([6]; 5′ bulge): binds to the 5′ bulge of TAR; TOCSY data ([6]; first part of cell TOCSY/NOESY): yes/yes; NOESY data ([6]; second part of cell TOCSY/NOESY): yes/yes; TOCSY data [7]: yes/no data; Line broadening [9]: yes; binding to RNA motifs by chemical shift mapping (TOCSY) [11]: binds to specific tertiary RNA motifs such as loops and bulges; STD signals @ 0.4-0.6 mM drug [13]: yes; inhibition of the interaction of TAR and Tat ([14]; compound at 100 nM, TAR and Tat both at 100 nM): completely inhibited; TOCSY data [15]: yes/no data; NOESY data [16]: yes/yes; TOCSY data [16]: yes/yes; STD signals @ 0.4-0.6 mM drug [17]: yes
2 | CN(C)CCCN1c2ccccc2Sc2ccccc21 [(2)] | yes |  | yes |  | positive |  |  | 
3 | CN(C)CCCN1c2ccccc2Sc2ccccc21 [(3)] | yes |  | no |  | negative |  |  | 
4 | CN(C)CCCN1c2ccccc2Sc2ccccc21 [(4)] | yes |  | yes |  | positive |  |  | 
5 | CN(C)CCCN1c2ccccc2Sc2ccccc21 [(5)] | yes |  | yes |  | negative |  |  | 
6 | CN(C)CCCN1c2ccccc2Sc2ccccc21 [(6)] | little |  | no | yes | positive |  |  | 
7 | OCCNCCCN1c2ccccc2Sc2ccc(Cl)cc21 [(7)] |  | yes |  | yes |  |  |  | 
8 | CCCCNCCCN1c2ccccc2Sc2ccc(Cl)cc21 [(8)] |  | yes |  | yes |  |  |  | 
9 | Clc1ccc2c(c1)N(CCCN1CCCCC1)c1ccccc1S2 [(9)] |  | yes |  | little |  |  |  | 
10 | Clc1ccc2c(c1)N(CCCNCc1ccccc1)c1ccccc1S2 [(10)] |  | yes |  | little |  |  |  | 
11 | Clc1ccc2c(c1)N(CCCn1ccnc1)c1ccccc1S2 [(11)] |  | yes |  |  |  |  |  | 
12 | CN(C)CCCN1c2ccccc2Sc2ccc(Cl)cc21 [chlorpromazine, 2-chloro-10-(dimethylaminopropyl)phenothiazine] |  |  |  |  |  | prevent completely | bind | 
13 | NC[C@@H]1O[C@H](O[C@H]2[C@@H](O)[C@H](O[C@@H]3[C@@H](O)[C@H](N)C[C@H](N)[C@H]3O[C@H]3O[C@H](CO)[C@@H](O)[C@H](O)[C@H]3N)O[C@@H]2CO)[C@H](N)[C@@H](O)[C@@H]1O [paromomycin] |  |  |  |  |  |  |  | Kd [18]: 0.2 µM
14 | CN1CCN(CCCN2c3ccccc3Sc3ccc(Cl)cc32)CC1 [prochlorperazine] |  |  |  |  |  | prevent completely | bind | concentration at which significant cellular toxicity resulted [19]: > 20 µM; inhibition of Tat transactivation [20]: up to 6 fold
15 | CCSc1ccc2c(c1)N(CCCN1CCN(C)CC1)c1ccccc1S2 [thiethylperazine] |  |  |  |  |  | did not | not found to have such binding activity | 
16 | CN1CCN(CCCN2c3ccccc3Sc3ccc(C(F)(F)F)cc32)CC1 [trifluoperazine] |  |  |  |  |  | did not | not found to have such binding activity | inhibitory effect on the RNA of the ribosomal A-site ([10]; method not specified): inhibitory effect

— patent US20030229082A1, “Inhibition of RNA function” (The Regents of the University of California, priority 2002, published 2003)
